Results on 16 compounds are retold here after ChEMBL document CHEMBL2417551, “Structure-guided design of novel thiazolidine inhibitors of O-acetyl serine sulfhydrylase from Mycobacterium tuberculosis” (J Med Chem, 2013).

The target in series [1] is O-acetylserine sulfhydrylase (Mycobacterium tuberculosis) (UniProt P9WP55). The conditions noted are these: at 500 nM.
Description: Inhibition of Mycobacterium tuberculosis N-terminal His-6-tagged recombinant CysK1 expressed in Escherichia coli BL21 (DE3) at 500 nM after 20 mins by spectrophotometric analysis
Series [2] deals with T1, O-acetylserine sulfhydrylase (Mycobacterium tuberculosis, UniProt P9WP55).
Description: Inhibition of Mycobacterium tuberculosis N-terminal His-6-tagged recombinant CysK1 expressed in Escherichia coli BL21 (DE3) after 20 mins by spectrophotometric analysis
The target of series [3] is T1, O-acetylserine sulfhydrylase. In words: Inhibition of Mycobacterium tuberculosis CysK1.
The nature of series [4]: Lipophilicity, log P of the compound. Type of series: physicochemical. The conditions noted are these: octanol/water.
Series [5] has as its target O-acetylserine sulfhydrylase (Mycobacterium tuberculosis) (UniProt P9WP55).
Series [6] shares this target. The source holds these as a separate data set.

One may read the inhibition as the change of the read-out against control, counted positive when it falls. What is called IC50 is the concentration at which inhibition is half-maximal. Higher therefore signals weaker potency. As to `COc1cc(/C=C2\S/C(=N\c3cccc(C(=O)O)c3)N(C)C2=O)ccc1O`, in series [1], the inhibition came to 87.5%. In series [2], it took 60 nM to reach half-maximal inhibition (IC50).
The matching figures for `CC(C)N1C(=O)/C(=C/c2ccc(O)cc2)S/C1=N\c1cccc(C(=O)O)c1`: 90.3% and 141 nM.
In the case of `CC[C@H](C)[C@H](NC(=O)[C@H](CO)NC(=O)[C@H](Cc1ccccc1)NC(=O)[C@@H](N)CC(=O)O)C(=O)O`, inhibition in series [3] was half-maximal at 2900 nM (IC50).
`CCN1C(=O)/C(=C/c2ccc(OC)c(OC)c2)S/C1=N\c1cccc(C(=O)O)c1`: in series [1], the inhibition was found to be 90.9%. In series [2], this compound registered an IC50 of 56 nM.
The matching figures for `CN1C(=O)/C(=C/c2ccc(OCc3ccccc3)cc2)S/C1=N\c1cccc(C(=O)O)c1`: 91.5% and 25.6 nM.
The matching figures for `COc1ccccc1/C=C1\S/C(=N\c2cccc(C(=O)O)c2)N(C)C1=O`: 96.9% and 160 nM.
The matching figures for `CCCN1C(=O)/C(=C/c2ccc(O)cc2)S/C1=N\c1cccc(C(=O)O)c1`: 95.1% and 95.1 nM.
`COc1cc(/C=C2\S/C(=N\c3cccc(C(=O)O)c3)N(C)C2=O)cc(OC)c1OC` returned an inhibition in series [1] of 89.4%. Further, in series [2], the IC50 stood at 69.9 nM.
In turn, `COc1ccc(/C=C2\S/C(=N\c3cccc(C(=O)O)c3)N(C)C2=O)cc1` came in with an inhibition in series [1] of 88.6%. 33.9 nM corresponded to half-maximal inhibition in series [2] (IC50).
The compound `CN1C(=O)/C(=C/c2ccccc2OCC(=O)O)S/C1=N\c1cccc(C(=O)O)c1` yielded an IC50 in series [3] of 103 nM.
In the case of `CCN1C(=O)/C(=C/c2ccc(O)cc2)S/C1=N\c1cccc(C(=O)O)c1`, in series [1], the inhibition is 90.2%. Besides, half-maximal inhibition in series [2] (IC50) was put at 101 nM.
The matching figures for `CN1C(=O)/C(=C/c2ccc(N(C)C)cc2)S/C1=N\c1cccc(C(=O)O)c1`: 93.4% and 37 nM.
Usually logP stands for a log measure of how a compound divides between an organic and an aqueous phase. A low value points to a more hydrophilic compound. Take `CN1C(=O)/C(=C/c2ccc(F)cc2)S/C1=N\c1cccc(C(=O)O)c1`: in series [4], the logP came to 2.7. Also, in series [1], the inhibition amounted to 89.5%. Moreover, the Ratio IC50 in series [5] stood at 150; in series [6], 5. This compound came in with an IC50 in series [2] of 19 nM.
In series [1], `C=CCN1C(=O)/C(=C/c2ccc(O)cc2)S/C1=N\c1cccc(C(=O)O)c1` had an inhibition of 92.3%. Further, half-maximal inhibition in series [2] (IC50) required 110 nM.
The matching figures for `CN1C(=O)/C(=C/c2ccc(O)cc2)S/C1=N\c1cccc(C(=O)O)c1`: 92.6% and 62.6 nM.
The matching figures for `COc1ccc(/C=C2\S/C(=N\c3cccc(C(=O)O)c3)N(C)C2=O)cc1OC`: 89.7% and 54.3 nM.
